Results from article PMC7496931, “Activation of Sirtuin 2 Inhibitors Employing Photoswitchable Geometry and Aqueous Solubility” (Chemmedchem, 2020).

Assays:
[1] = Photoisomer distribution (PSD) by HPLC-ELSD; assay type: physicochemical; details: HPLC in MeOH/water, ELSD; for E/Z [%] PSD @ 365 nm: after 365 nm irradiation; for E/Z [%] PSD @ 452 nm: after 452 nm irradiation
Experimental: (§1) Photochemistry: All photoisomerization experiments were conducted under ruby light of 630 nm and total exclusion of daylight. Illumination was executed using a Bio‐Link 254 Crosslinker from Vilber‐Lourmat equipped with six Vilber‐Lourmat T8‐L lamps (8 W, 365 nm). Visible light radiation of 630 nm (ruby) and 452 nm (blue) was derived from a Paulmann FlexLED 3D strip. All compounds were irradiated in solution using spectrophotometric grade solvents. Photoisomerization and UV/Vis‐spectra measurement was conducted in quartz glass cuvettes (114‐QS, Hellma Analytics) at room temperature.

[2] = UV/Vis spectra and half-life of thermal Z→E isomerization; assay type: physicochemical; design: k of thermal Z→E isomerization (non-linear regression): unit not given here; details: for λΔ/max absorption maximum at thermal equilibrium: 50 μM in DMSO/assay buffer; for k of thermal Z→E isomerization (non-linear regression): 50 μM
Experimental: as §1
UV/Vis Spectra and Half-Life of Thermal Isomerization
The half-life of the thermal Z→E isomerization after 5 minutes of 365 nm irradiation was determined by UV/Vis-spectroscopy. Therefore, solutions of the respective compounds (50 µM) in 5%, 50% or 90% DMSO in enzyme assay buffer (v/v) were prepared. An initial spectrum of the thermal equilibrium was recorded. After 5 minutes of irradiation with 365 nm the increase of absorbance at the thermal equilibrium maximum (λ∆max) was recorded as exemplified by compound 15c (Figure S3). Absorbance at λ = λ ∆max was plotted as a function of time. Non-linear regression yielded the half-life of the thermal Z→E isomerization (Table S1). For extrapolation of the reaction kinetics, the plateau value was set to the initial absorbance at λ=λ∆max. The following equation was used for non-linear regression:
y = (y0 − Plateau)e−kx + Plateau
Figure S3: Left: UV-Vis spectrum of 15c (50 µM) in assay buffer (5% DMSO, v/v) at the thermal equilibrium (∆) and the photostationary state (PSS) after UV irradiation (365 nm). Right:
Absorbance of 15c (50 µm) in assay buffer (5% DMSO, v/v) at λ∆max = 328 nm after 5 minutes of UV (365 nm) irradiation.
(1 picture or pasted object on this page, not shown here)

[3] = system: urinary bladder cancer cell line RT‐4; assay: Cell-based activity assay (western blot of acetylation levels); design: species or system human; details: RT-4 cells, 50 μM, 24 h, compounds irradiated (365 nm) prior to incubation
Experimental: Reductive stability of 15 c, 15 f and 20 a in the presence of the cellular reductant glutathione (5 mM) was confirmed by HPLC analysis (Figure S5, Table S2). For the cell‐based activity assay, we illuminated the compounds solved in DMSO with UV light (365 nm) prior to incubation with the cells. […] As expected, 15 c and 15 f increased the levels of acetylated lysines H3K18 and H3K56, which are both affirmed substrates of Sirt2. In addition, we found H4K8 hyperacetylation even though this site is usually not affected by sirtuin catalysed deacetylation, indicating a further mode of action. […] In Figure 6, we show the relative results, whereby the acetylation product was related to total target protein and to the vehicle control. Again, we found an increase in acetylated histones induced by 15 c and 15 f which proves activity of these two compounds in living cells.
Figure 6 Relative acetylation levels of protein targets after incubation with compounds at 50 μM for 24 h in urinary bladder cancer cell line RT‐4 (mean of n=2). […]
Cell-Based Activity Assay
To qualify inhibitory activity of compounds on sirtuins we used the western blot technique.
Therefore, we used precast “Mini-Protean TGX Stain-Free Gels” and corresponding “Trans-Blot Turbo Transfer Pack Mini” PVDF membranes (Biorad, Germany). For sample preparation, […]
Sirt2 in our cell line stock (Data not shown), obtained from “Deutsche Sammlung von Mikroorganismen und Zellkulturen” (DSMZ), Germany. Cells were grown in RPMI 1640 cell medium supplemented with 10% fetal bovine serum and 1% penicillin/streptomycin purchased from PAN Biotec, Germany and stored in a humidified incubator at 37 °C with 5% CO2 atmosphere. For sample preparation, cells were harvested with Trypsin/EDTA and counted in a Beckman’s Coulter Counter. In six well plates, […] were seeded out in 3 mL medium and let allow to attach for 24 h. Stock solutions of compounds (1000-fold) were prepared with DMSO and illuminated with UV light (365 nm) for 5 min. Then, cells were exposed to compounds at a final concentration of 50 µM and incubated for 24 h. Cells were detached with Trypsin/EDTA and washed with phosphate buffered saline (PBS) by centrifugation at 500 g for 5 min and resuspended in PBS. Cell pellets were lysed with a lysis buffer containing Tris […]
and freshly added 1% protease inhibitor cocktail (Sigma Aldrich, Germany) on ice, followed by sonification for 30 minutes. The protein concentration was determined by the Bradford method against bovine serum albumin (BSA) as standard. Each slot of the precast gel was loaded with 30 µg protein followed by an electrophoretic separation and a transfer onto PVDF membranes.
Blots were blocked with 10% non-fat milk powder in Tris-buffered saline containing 20 mM Tris, 145 mM NaCl and Tween 0.5% (TBST) for 2 h and incubated with primary antibody in 1:1000 dilutions (in TBST and 1% BSA) over night at 4 °C. After washing procedure, blots were incubated with secondary antibody conjugated with horse radish peroxidase (1:5000 in TBST and 1% BSA) for 2 h. All used antibodies were obtained from cell signalling (UK): anti ac.H3K9 […]
anti ac.α-tubulin (#5335), anti α-tubulin (#2125) and anti rabbit-HRP (#7074). Target protein bands were detected with Clarity Western ECL Substrate (Biorad, Germany) and recorded at an Advanced Fluorescence Imager (INTAS, Germany). Band intensity was related to internal standard of the TGX Stain-Free gels as loading control.
In order to verify the conformations of Z-15c and Z-15f obtained from our molecular docking experiments, a two-dimensional dihedral analysis was performed using MOE with 3-(2-phenyldiazenyl)-pyridine as reference compound. Both dihedrals were rotated by 360° in 5° steps. At each step, the potential energy was calculated with AMBER force field parameters and AM1-BCC partial charges applied. The diazenyl double bond of both compounds is nearly […]

[4] = 90 % DMSO (v/v) in assay buffer
[5] = 50 % DMSO (v/v) in assay buffer

NC(=O)c1cncc(/N=N/c2c(O)ccc3ccccc23)c1 [7 c]
melting point: 260 °C

Cc1cc(/N=N/c2cncc(C(N)=O)c2)cc(C)c1N [7 f]
melting point: 255 °C

CCCCCCCCCCCCCC(=O)Nc1c(C)cc(/N=N/c2cncc(C(N)=O)c2)cc1C [9 g]
E/Z [%] PSD @ 365 nm [1]: 14/86
E/Z [%] PSD @ 452 nm [1]: 87/13
melting point: 254.1 °C
λΔ/max absorption maximum at thermal equilibrium ([2]; 90 % DMSO (v/v)): 345 nm
k of thermal Z→E isomerization (non-linear regression) [2, 4]: 0.02709

Cc1cc(/N=N/c2cncc(C(N)=O)c2)cc(C)c1NC(=O)c1ccccc1 [9 h]
E/Z [%] PSD @ 365 nm [1]: 14/86
E/Z [%] PSD @ 452 nm [1]: 91/9
melting point: 267 °C (dec.)
λΔ/max absorption maximum at thermal equilibrium ([2]; 50 % DMSO (v/v)): 337 nm
k of thermal Z→E isomerization (non-linear regression) [2, 5]: 0.9524

Cc1cc(/N=N/c2cncc(C(N)=O)c2)cc(C)c1NC(=O)c1ccc(-c2cccs2)cc1 [9 j]
E/Z [%] PSD @ 365 nm [1]: 29/71
E/Z [%] PSD @ 452 nm [1]: 93/7
melting point: 306.5 °C (dec.)
λΔ/max absorption maximum at thermal equilibrium ([2]; 50 % DMSO (v/v)): 330 nm
k of thermal Z→E isomerization (non-linear regression) [2, 5]: 1.212

CC(C)(C)OC(=O)NCc1ccc(/N=N/c2cncc(C(N)=O)c2)cc1 [15 c]
E/Z [%] PSD @ 365 nm [1]: 11/89
E/Z [%] PSD @ 452 nm [1]: 86/14
melting point: 212.1 °C (dec.)
H4K8 acetylation [3]: hyperacetylation
acetylation level of α-tubulin [3]: none of the compounds influenced
expression of total histone H3 [3]: no effect
expression of total α-tubulin protein [3]: no effect
level of acetylated lysine H3K18 [3]: increased
level of acetylated lysine H3K56 [3]: increased
total H4 [3]: slight increase
λΔ/max absorption maximum at thermal equilibrium ([2]; 5 % DMSO (v/v)): 329 nm
k of thermal Z→E isomerization (non-linear regression) ([2]; 5 % DMSO (v/v) in assay buffer): 0.002173

CCCCCCCCCC(=O)NCc1ccc(/N=N/c2cncc(C(N)=O)c2)cc1 [15 f]
E/Z [%] PSD @ 365 nm [1]: 5/95
E/Z [%] PSD @ 452 nm [1]: 79/21
melting point: 259.5 °C
H4K8 acetylation [3]: hyperacetylation
acetylation level of α-tubulin [3]: none of the compounds influenced
expression of total histone H3 [3]: no effect
expression of total α-tubulin protein [3]: no effect
level of acetylated lysine H3K18 [3]: increased
level of acetylated lysine H3K56 [3]: increased
total H4 [3]: slight increase
λΔ/max absorption maximum at thermal equilibrium ([2]; 90 % DMSO (v/v)): 333 nm
k of thermal Z→E isomerization (non-linear regression) [2, 4]: 0.006796

CC(C)(O)C#Cc1ccc(/N=N/c2cncc(C(N)=O)c2)cc1 [15 h]
E/Z [%] PSD @ 365 nm [1]: 23/77
E/Z [%] PSD @ 452 nm [1]: 92/8
melting point: 223.3 °C
λΔ/max absorption maximum at thermal equilibrium ([2]; 50 % DMSO (v/v)): 350 nm
k of thermal Z→E isomerization (non-linear regression) [2, 5]: 0.00906

NC(=O)c1cncc(OCc2cccc(/N=N/c3ccc(OCc4ccccc4)cc3)c2)c1 [20 a]
E/Z [%] PSD @ 365 nm [1]: 4/96
E/Z [%] PSD @ 452 nm [1]: 80/20
acetylation level of α-tubulin [3]: none of the compounds influenced
activity regarding the examined substrates (acetylation) [3]: did not exert any activity
expression of total histone H3 [3]: no effect
expression of total α-tubulin protein [3]: no effect
total H4 [3]: slight increase
λΔ/max absorption maximum at thermal equilibrium ([2]; 50 % DMSO (v/v)): 352 nm
k of thermal Z→E isomerization (non-linear regression) [2, 5]: 0.0207

NC(=O)c1cncc(OCc2cccc(/N=N/c3ccc(F)cc3)c2)c1 [20 b]
E/Z [%] PSD @ 365 nm [1]: 2/98
E/Z [%] PSD @ 452 nm [1]: 83/17
melting point: 202.1 °C
λΔ/max absorption maximum at thermal equilibrium ([2]; 50 % DMSO (v/v)): 324 nm
